# Source: ChEMBL document CHEMBL2074448, “Transport of anthelmintic benzimidazole drugs by breast cancer resistance protein (BCRP/ABCG2)” (Drug Metab Dispos, 2005)
# How the values were obtained:
# Assay type in all cases: functional, cell-based
# Details in all cases: dog, mdck-ii
# [1] = molecular target: T1, Broad substrate specificity ATP-binding cassette transporter ABCG2 (Mus musculus, UniProt Q7TMS5); assay: TP_TRANSPORTER: transepithelial transport of PhIP (basal to apical) in Bcrp1-expressing MDCKII cells
# T1 sequence (Q7TMS5 whole entry): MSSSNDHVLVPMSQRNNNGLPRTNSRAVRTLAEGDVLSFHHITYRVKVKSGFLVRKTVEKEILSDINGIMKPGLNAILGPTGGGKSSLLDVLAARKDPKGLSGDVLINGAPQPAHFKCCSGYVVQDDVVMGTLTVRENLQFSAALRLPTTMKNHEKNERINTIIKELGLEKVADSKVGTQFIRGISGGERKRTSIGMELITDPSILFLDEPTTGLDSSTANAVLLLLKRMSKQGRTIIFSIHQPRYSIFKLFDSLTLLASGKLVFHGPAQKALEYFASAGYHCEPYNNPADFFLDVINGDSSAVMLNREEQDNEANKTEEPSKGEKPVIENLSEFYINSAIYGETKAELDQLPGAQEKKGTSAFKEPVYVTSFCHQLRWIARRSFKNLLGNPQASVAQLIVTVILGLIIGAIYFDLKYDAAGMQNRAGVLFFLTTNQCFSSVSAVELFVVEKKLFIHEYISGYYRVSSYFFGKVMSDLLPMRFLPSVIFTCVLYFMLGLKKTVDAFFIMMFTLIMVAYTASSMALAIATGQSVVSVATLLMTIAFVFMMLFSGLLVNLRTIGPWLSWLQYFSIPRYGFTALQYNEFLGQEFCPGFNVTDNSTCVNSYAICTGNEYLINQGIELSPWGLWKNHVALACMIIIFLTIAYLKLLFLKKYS
# [2] = molecular target: T1, Broad substrate specificity ATP-binding cassette transporter ABCG2; assay: TP_TRANSPORTER: transepithelial transport (basal to apical) in Bcrp1-expressing MDCKII cells
# [3] = molecular target: T2, Broad substrate specificity ATP-binding cassette transporter ABCG2 (Homo sapiens, UniProt Q9UNQ0); assay: TP_TRANSPORTER: transepithelial transport (basal to apical) in BCRP-expressing MDCKII cells
# T2 sequence (Q9UNQ0 whole entry): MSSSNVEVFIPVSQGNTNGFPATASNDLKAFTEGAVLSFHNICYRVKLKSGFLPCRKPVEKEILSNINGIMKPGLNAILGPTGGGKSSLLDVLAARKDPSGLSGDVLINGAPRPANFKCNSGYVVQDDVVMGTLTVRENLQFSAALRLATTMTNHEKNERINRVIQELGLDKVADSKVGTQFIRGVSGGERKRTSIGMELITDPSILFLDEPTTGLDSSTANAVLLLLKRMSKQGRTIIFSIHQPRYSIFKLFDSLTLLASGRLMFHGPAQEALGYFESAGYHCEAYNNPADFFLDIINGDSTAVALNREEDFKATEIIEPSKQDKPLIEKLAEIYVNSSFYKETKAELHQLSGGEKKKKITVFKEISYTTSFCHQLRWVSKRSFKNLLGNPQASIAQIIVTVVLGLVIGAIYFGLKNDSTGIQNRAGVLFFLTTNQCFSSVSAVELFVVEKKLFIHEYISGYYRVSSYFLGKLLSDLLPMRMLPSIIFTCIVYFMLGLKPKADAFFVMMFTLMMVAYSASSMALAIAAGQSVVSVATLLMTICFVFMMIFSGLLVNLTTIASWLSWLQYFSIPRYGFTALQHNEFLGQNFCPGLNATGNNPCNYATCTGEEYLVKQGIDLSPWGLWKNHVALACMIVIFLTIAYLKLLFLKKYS
# [4] = molecular target: T2, Broad substrate specificity ATP-binding cassette transporter ABCG2; assay: TP_TRANSPORTER: transepithelial transport of PhIP (basal to apical) in BCRP-expressing MDCKII cells
Compound,Activity [1],Activity [2],Activity [3],Activity [4]
COc1ccc2c3c([nH]c2c1)[C@H](CC(C)C)N1C(=O)[C@H](CCC(=O)OC(C)(C)C)NC(=O)[C@@H]1C3,inhibitor [],,,
CCC[S+]([O-])c1ccc2[nH]c(NC(=O)OC)nc2c1 (stereo unspecified) [ALBENDAZOLE OXIDE],,substrate [],substrate [],
COC(=O)Nc1nc2ccc([S+]([O-])c3ccccc3)cc2[nH]1 (stereo unspecified) [OXFENDAZOLE],inhibitor [],substrate [],,inhibitor []
